Results from patent US20090233965A1, “Alkyl Esters Of Cyclic Amino Alcohols With Muscarinic M3 Receptor Antagonist Activity, Useful For Treating E.G. Chronic Bronchial Obstruction, Asthma And Overactive Bladder” (priority 2006, published 2009).
Where two headings read alike, the source gives them in different places.

Molecular target: human muscarinic acetylcholine M3 receptor (M3-ACh) (Homo sapiens, UniProt P20309)
Experiment: M3 Receptor Activity Assay: competition binding of [3H]N-methyl scopolamine, SPA format
[1] = competition binding of [3H]NMS at 0.2 nM to CHO-K1 cell membranes expressing human M3 receptor, 16 hours at room temperature, read-out: pIC50 (converted)

Chain of human muscarinic acetylcholine M3 receptor (M3-ACh) (P20309 whole entry): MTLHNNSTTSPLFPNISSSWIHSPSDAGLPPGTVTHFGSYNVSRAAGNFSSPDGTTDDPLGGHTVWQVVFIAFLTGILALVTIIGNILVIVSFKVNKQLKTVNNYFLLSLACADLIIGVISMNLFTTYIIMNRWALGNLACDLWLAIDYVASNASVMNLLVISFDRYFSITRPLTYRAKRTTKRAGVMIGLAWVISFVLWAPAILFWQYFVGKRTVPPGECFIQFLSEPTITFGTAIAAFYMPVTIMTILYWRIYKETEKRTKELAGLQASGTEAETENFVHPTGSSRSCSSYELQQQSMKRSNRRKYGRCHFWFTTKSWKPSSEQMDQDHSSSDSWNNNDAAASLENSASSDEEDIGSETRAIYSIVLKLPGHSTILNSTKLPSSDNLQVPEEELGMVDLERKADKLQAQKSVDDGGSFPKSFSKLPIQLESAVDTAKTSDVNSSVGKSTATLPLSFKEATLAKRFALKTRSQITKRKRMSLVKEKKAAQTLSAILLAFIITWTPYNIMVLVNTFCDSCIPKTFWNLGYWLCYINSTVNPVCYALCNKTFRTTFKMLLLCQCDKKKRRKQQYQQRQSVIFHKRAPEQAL
Description: The assay was conducted in a final volume of 200 μL, in the presence of 1% (v/v) dimethyl sulphoxide (DMSO). Total binding of [^3H]NMS was determined in the absence of competing compound and non-specific binding of [3H]NMS was determined in the presence of 1 μM atropine. The plates were incubated for 16 hours at room temperature and then read on Wallac Microbeta™ using a normalised ^3H protocol.

## CC(C(=O)OC1CC[N+](C)(C)CC1)(c1ccccc1)C1CC1 (stereo not drawn) [Example 3, 4-[(2-Cyclopropyl-2-phenylpropanoyl)oxy]-1,1-dimethylpiperidinium iodide]
  IC50: 398 pM

## Cc1ccc(C(C)(C(=O)OC2CC[N+](C)(C)CC2)C2CCCC2)s1 (stereo not drawn) [Example 9, 4-{[2-Cyclopentyl-2-(5-methyl-2-thienyl)propanoyl]oxy}-1,1-dimethylpiperidinium iodide]
[1]
  IC50: 79.4 pM

## CC(C(=O)OC1CC[N+](C)(C)CC1)(c1ccc(Cl)cc1)C1CCCC1 (stereo not drawn) [Example 19, 4-{[2-(4-Chlorophenyl)-2-cyclopentylpropanoyl]oxy}-1,1-dimethylpiperidinium iodide]
[1]
  IC50: 200 pM
